This note sets out measurements from patent US10640495B2, “Heterocycle derivatives having TrkA inhibitory activity” (Shionogi & Co., Ltd., priority 2015, dated 2020).

human TrkA, sequence (P04629 440-796): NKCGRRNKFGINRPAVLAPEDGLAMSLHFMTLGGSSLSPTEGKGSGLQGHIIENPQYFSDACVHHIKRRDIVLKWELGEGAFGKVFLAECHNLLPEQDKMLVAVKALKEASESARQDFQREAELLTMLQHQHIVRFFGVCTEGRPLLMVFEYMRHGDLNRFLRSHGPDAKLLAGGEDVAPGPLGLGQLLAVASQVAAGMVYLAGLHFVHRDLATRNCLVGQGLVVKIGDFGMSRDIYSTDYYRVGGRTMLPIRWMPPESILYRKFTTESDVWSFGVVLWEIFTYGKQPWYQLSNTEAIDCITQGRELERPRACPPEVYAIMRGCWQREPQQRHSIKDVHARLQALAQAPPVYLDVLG

One experiment concerns the target human TrkA (Homo sapiens (Human), UniProt P04629). Description: Human TrkA inhibition assay (Test Example 2). In kind it is biochemical. Particulars: Table 152, human TrkA inhibition; read-out: IC50_nM. Summed up:
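Mobility-shift readout of phosphorylated versus unphosphorylated fluorescent peptide gave conversion ratio, normalized to DMSO and no-enzyme wells; IC50 by logistic fit of 10- or 15-point 3-fold dilutions. Conditions: 1 nmol/L enzyme, 15 min compound preincubation, then 500 μmol/L ATP plus 1.5 μmol/L peptide, 120 min, 37 °C.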
In the case of `COCCC1C[C@@H](NC(=O)Nc2c(C)c(-c3ccc(C(=O)O)cc3)nn2-c2ccccc2)[C@H](c2ccccc2)O1` (stereo partly shown) [Compound I-15], the IC50 was below 0.1 µM.

Turning to `COCCN1C[C@@H](NC(=O)Nc2c(C)c(-c3cnn(C)c3)nn2-c2ccccc2)[C@H](c2ccnc(Cl)c2)O1` (racemic) [Compound I-9], the IC50 was below 0.1 µM. Still for that read-out and setting: the same measure for `COCCC1C[C@@H](NC(=O)Nc2c(C)c(-c3cnn(C)c3)nn2-c2ccccc2)[C@H](c2ccccc2)O1` (stereo partly shown) [Compound I-16]: below 0.1 µM; for `COCCN1C[C@@H](NC(=O)Nc2c(C)c(-c3cnc(CO)nc3)nn2-c2ccccc2)[C@H](c2ccc(F)c(F)c2)O1` (racemic) [Compound I-34]: below 0.1 µM.

The experiment is the same for the next values; noted with them: Table 153, human TrkA inhibition; read-out: IC50.
With `CNC(=O)c1cc(-c2nn(-c3ccccc3)c(NC(=O)N[C@@H]3CN(CCOC)O[C@H]3c3ccnc(F)c3)c2C)cn(C)c1=O` (racemic) [Compound I-106], the IC50 is below 0.1 µM.

Consider `COCCN1C[C@@H](NC(=O)Nc2c(C)c(-c3cnc(C)nc3)nn2-c2ccccc2)[C@H](c2cnc(Cl)s2)O1` (racemic) [Compound I-154], for which the IC50 is below 0.1 µM. Still for that read-out and setting: the figure for `COCCN1C[C@@H](NC(=O)Nc2c(C)c(-c3cnn(C)c3)nn2-c2ccccc2)[C@H](c2cnc(F)c(F)c2)O1` (racemic) [Compound I-52] is below 0.1 µM. The same measure, in the same setting: the figure for `COCCN1C[C@@H](NC(=O)Nc2c(C)c(-c3cnc(C(=O)N[C@@H]4CCOC4)c(C)c3)nn2-c2ccccc2)[C@H](c2ccnc(F)c2)O1` [Compound I-172] is below 0.1 µM.

Turning to `COCCN1C[C@@H](NC(=O)Nc2c(C)c(-c3cnc(C4CC4)nc3)nn2-c2ccccc2)[C@H](c2ccnc(F)c2)O1` (racemic) [Compound I-115], the IC50 is below 0.1 µM. Same read-out and setting: the same measure for `COCCN1C[C@@H](NC(=O)Nc2c(C)c(-c3cnc(C(=O)NC4CC4)c(C)c3)nn2-c2ccccc2)[C@H](c2ccnc(F)c2)O1` (racemic) [Compound I-169]: below 0.1 µM.

The experiment is the same for the next values; noted with them: Table 154, human TrkA inhibition; read-out: IC50.
As to `COCCN1C[C@@H](NC(=O)Nc2c(C)c(-c3cnc(C(N)=O)c(Cl)c3)nn2-c2ccccc2)[C@H](c2ccnc(F)c2)O1` (racemic) [Compound I-316], the IC50 was below 0.1 µM.

For the compound `COCCN1C[C@@H](NC(=O)Nc2c(C)c(-c3cnc(N4CC(O)C4)nc3)nn2-c2ccccc2)[C@H](c2ccc(F)cc2)O1` (racemic) [Compound I-265], the IC50 was below 0.1 µM. Still for that read-out and setting: the same measure for `COCCN1C[C@@H](NC(=O)Nc2c(C)c(-c3cnc(OC)c(C(=O)NOCCF)c3)nn2-c2ccccc2)[C@H](c2ccnc(F)c2)O1` (racemic) [Compound I-261]: below 0.1 µM; for `COCCN1C[C@@H](NC(=O)Nc2c(C)c(-c3cnc4c(c3)NCCO4)nn2-c2ccccc2)[C@H](c2ccnc(F)c2)O1` (racemic) [Compound I-306]: below 0.1 µM. Same read-out and setting: the figure for `COCCN1C[C@@H](NC(=O)Nc2c(C)c(-c3cnc(OC)c(C(N)=O)c3)nn2-c2ccc(F)cc2)[C@H](c2ccnc(F)c2)O1` (racemic) [Compound I-238] is below 0.1 µM.

The same experiment, now with this note: Table 155, human TrkA inhibition; read-out: IC50.
As to `COCCN1C[C@@H](NC(=O)Nc2c(C)c(OCC3CN(C(C)=O)CCO3)nn2-c2ccccc2)[C@H](c2ccnc(F)c2)O1` (stereo partly shown) [Compound I-504], the IC50 was below 0.1 µM. In the case of `COCCN1C[C@@H](NC(=O)Nc2c(C)c(-c3cnc(OC)c(C4(O)CC4)c3)nn2-c2ccccc2)[C@H](c2ccnc(F)c2)O1` (racemic) [Compound I-355], the IC50 is below 0.1 µM.

As to `CNC(=O)c1cc(-c2nn(-c3ccccc3)c(NC(=O)N[C@@H]3CN(C)O[C@H]3c3ccc(F)c(F)c3)c2C)cnc1OC` (racemic) [Compound I-469], the IC50 was below 0.1 µM. As to `COCCN1C[C@@H](NC(=O)Nc2c(C)c(-c3ccc4nc(CO)cn4c3)nn2-c2ccccc2)[C@H](c2ccnc(F)c2)O1` (racemic) [Compound I-347], the IC50 is below 0.1 µM. Same read-out and setting: the figure for `COCCN1C[C@@H](NC(=O)Nc2c(C)c(-c3cnc(N4CCNCC4)nc3)nn2-c2ccccc2)[C@H](c2cc(F)nc(F)c2)O1` (racemic) [Compound I-415] is below 0.1 µM; for `COCCN1C[C@@H](NC(=O)Nc2c(C)c(-c3cnc(N4CCNCC4)nc3)nn2-c2ccccc2)[C@H](c2ccnc(F)c2)O1` (racemic) [Compound I-414] it is below 0.1 µM; for `COCCN1C[C@@H](NC(=O)Nc2c(C)c(OCC3CN(C(=O)OC(C)(C)C)CCO3)nn2-c2ccccc2)[C@H](c2ccnc(F)c2)O1` (stereo partly shown) [Compound I-499] it is below 0.1 µM. On the same count and under the same terms, the figure for `COCCN1C[C@@H](NC(=O)Nc2c(C)c(OCc3ccon3)nn2-c2ccccc2)[C@H](c2ccnc(F)c2)O1` (racemic) [Compound I-457] is below 0.1 µM; for `COCCN1C[C@@H](NC(=O)Nc2c(C)c(-c3cnc4c(c3)OCCO4)nn2-c2ccccc2)[C@H](c2ccc(F)c(F)c2)O1` [Compound I-463] it is below 0.1 µM; for `COCCN1C[C@@H](NC(=O)Nc2c(C)c(-c3ccc(N4CCC(NC(C)=O)C4)nc3)nn2-c2ccccc2)[C@H](c2ccnc(F)c2)O1` (stereo partly shown) [Compound I-349] it is below 0.1 µM. For the compound `COCCN1C[C@@H](NC(=O)Nc2c(C)c(-c3cnc(N4CC(F)(F)C4)nc3)nn2-c2ccccc2)[C@H](c2ccnc(F)c2)O1` (racemic) [Compound I-481], the IC50 is below 0.1 µM. On the same count and under the same terms, the same measure for `COCCN1C[C@@H](NC(=O)Nc2c(C)c(-c3ccc4c(c3)NCCO4)nn2-c2ccccc2)[C@H](c2ccnc(F)c2)O1` (racemic) [Compound I-382]: below 0.1 µM. Same read-out and setting: the figure for `COCCN1C[C@@H](NC(=O)Nc2c(C)c(-c3cnc4c(c3)ncn4CC(=O)N(C)C)nn2-c2ccccc2)[C@H](c2ccnc(F)c2)O1` (racemic) [Compound I-402] is below 0.1 µM. In the case of `COCCN1C[C@@H](NC(=O)Nc2c(C)c(-c3cnc4c(c3)CN(C(C)=O)CC4)nn2-c2ccccc2)[C@H](c2ccnc(F)c2)O1` (racemic) [Compound I-439], the IC50 is below 0.1 µM. Still for that read-out and setting: the same measure for `COCCN1C[C@@H](NC(=O)Nc2c(C)c(-c3cnc(OC4CC4)nc3)nn2-c2ccccc2)[C@H](c2ccnc(F)c2)O1` (racemic) [Compound I-425]: below 0.1 µM. In the case of `COCCN1C[C@@H](NC(=O)Nc2c(C)c(-c3cc(C(=O)NC(C)(C)C(F)(F)F)c(=O)n(C)c3)nn2-c2ccccc2)[C@H](c2ccnc(F)c2)O1` (racemic) [Compound I-390], the IC50 was below 0.1 µM.

As for `COCCN1C[C@@H](NC(=O)Nc2c(C)c(-c3cnc4c(c3)NC(=O)CN4)nn2-c2ccccc2)[C@H](c2ccnc(F)c2)O1` (racemic) [Compound I-357], the IC50 was below 0.1 µM. On the same count and under the same terms, the figure for `COCCN1C[C@@H](NC(=O)Nc2c(C)c(-c3ccc(N4CCN(C(=O)OC(C)(C)C)CC4)nc3)nn2-c2ccccc2)[C@H](c2ccnc(F)c2)O1` (racemic) [Compound I-372] is below 0.1 µM; for `COCCN1C[C@@H](NC(=O)Nc2c(C)c(-c3ccc4nc(C)nn4c3)nn2-c2ccccc2)[C@H](c2ccnc(F)c2)O1` [Compound I-359] it is below 0.1 µM; for `COCCN1C[C@@H](NC(=O)Nc2c(C)c(-c3ccc4nccn4c3)nn2-c2ccccc2)[C@H](c2ccnc(F)c2)O1` (racemic) [Compound I-470] it is below 0.1 µM. Same read-out and setting: the same measure for `COCCN1C[C@@H](NC(=O)Nc2c(C)c(-c3ccc(OC)nc3)nn2-c2ccccc2)[C@H](c2ccnc(F)c2)O1` (racemic) [Compound I-323]: below 0.1 µM; for `COCCN1C[C@@H](NC(=O)Nc2c(C)c(-c3cnc4c(c3)nc(N3CCCC3)n4C)nn2-c2ccccc2)[C@H](c2ccnc(F)c2)O1` (racemic) [Compound I-398]: below 0.1 µM. Still for that read-out and setting: the figure for `COCCN1C[C@@H](NC(=O)Nc2c(C)c(-c3cnc(C(=O)OC)c(CF)c3)nn2-c2ccccc2)[C@H](c2ccnc(F)c2)O1` (racemic) [Compound I-435] is below 0.1 µM.

Staying with this experiment, now noted: Table 156, human TrkA inhibition; read-out: IC50.
Consider `COCCN1C[C@@H](NC(=O)Nc2c(C)c(-c3ccc(CO)nc3)nn2-c2ccccc2)[C@H](c2ccc(F)c(F)c2)O1` [Compound I-533], for which the IC50 was below 0.1 µM.

The same experiment, now with this note: Table 157, human TrkA inhibition; read-out: IC50.
In the case of `COCCN1C[C@@H](NC(=O)Nc2c(C)c(CO[Si](C)(C)C(C)(C)C)nn2-c2ccccc2)[C@H](c2ccc(F)c(F)c2)O1` [Compound I-605], the IC50 was in the range of 0.1 to 1 µM. Same read-out and setting: the same measure for `COCCN1C[C@@H](NC(=O)Nc2c(C)c(OC3CN(C)C3)nn2-c2ccccc2)[C@H](c2ccc(F)c(F)c2)O1` [Compound I-600]: below 0.1 µM. Still for that read-out and setting: the same measure for `CCN1C[C@@H](NC(=O)Nc2c(C)c(OCCCC(=O)NC3CC3)nn2-c2ccccc2)[C@H](c2ccc(F)c(F)c2)O1` (racemic) [Compound I-665]: below 0.1 µM; for `CCN1C[C@@H](NC(=O)Nc2c(C)c(CCN(C)C)nn2-c2ccccc2)[C@H](c2ccc(F)c(F)c2)O1` (racemic) [Compound I-642]: 0.1 to 1 µM. On the same count and under the same terms, the figure for `COCCN1C[C@@H](NC(=O)Nc2c(C)c(CN(C)C)nn2-c2ccccc2)[C@H](c2ccc(F)c(F)c2)O1` [Compound I-640] is 0.1 to 1 µM; for `COCCN1C[C@@H](NC(=O)Nc2c(C(F)F)c(C)nn2-c2ccccc2)[C@H](c2ccnc(F)c2)O1` (racemic) [Compound I-673] it is 0.1 to 1 µM.

The same experiment, now with this note: human TrkA 1 nmol/L, ATP 500 μmol/L, 120 min at 37° C.; read-out: IC50 values (TrkA phosphorylation inhibition).
As to `CCN1C[C@@H](NC(=O)Nc2c(C)c(-c3cnc(OC)c(C(=O)NC)c3)nn2-c2ccccc2)[C@H](c2ccc(F)c(F)c2)O1` (racemic) [Compound I-406], the IC50 worked out at 0.0022 µM. The same measure, in the same setting: the figure for `COCCN1C[C@@H](NC(=O)Nc2c(C)c(N3CCN(C)C(=O)C3)nn2-c2ccccc2)[C@H](c2ccc(F)c(F)c2)O1` [Compound I-344] is 0.00097 µM. Still for that read-out and setting: the same measure for `CNC(=O)c1ncc(-c2nn(-c3ccccc3)c(NC(=O)N[C@@H]3CN(CCOC)O[C@H]3c3ccnc(F)c3)c2C)cc1C` (racemic) [Compound I-166]: 0.0048 µM.

As for `CNC(=O)c1ncc(-c2nn(-c3ccccc3)c(NC(=O)N[C@@H]3CN(CCOC)O[C@H]3c3ccc(F)c(F)c3)c2C)cc1NC` [Compound I-315], the IC50 was 0.00076 µM.
